Source: US8609414B2, “Isolation and growth of stem cells from hemangiomas” (priority 2007, dated 2013)

System: hemangioma tumor spheres
Conditions: DMEM/F12 + 50 μg/ml VEGF + NEAA
Description: Another key property of stem cells is their ability to differentiate into mature cells. To assess whether hemangioma tumor sphere cells are able to differentiate into mature cells, tumor cells were cultured in appropriate growth factors.

## VEGF
72 hours
  differentiation of hemangioma tumor sphere cells into mature cells: differentiated into the endothelial-like tissue
phase-contrast microscopy
  time to changes in cell morphology: ≤ 24 hours
